Calls of active or inactive are those of the source. The rule behind the calls is not given here. Where a SMILES comes first, the peptide text is derived from it.
Tests used:
[1] = system: Mus musculus; assay: Protection against UV radiation-stress induced skin damage in Kunming mouse model assessed as repair of broken skin at 20 ug/ml administered topically and measured every 2 days for 10 days; assay type: functional, organism-based; details: dose 20.0 µg/ml, route top, time 10.0 day
[2] = Antioxidant activity assessed as DPPH radical scavenging activity by measuring eradication rate at 80 ug/mL incubated for 30 mins by absorbance based assay relative to control; assay type: functional; details: dose 80.0 µg/ml
[3] = Antioxidant activity assessed as ABTS radical scavenging activity at 80 ug/mL incubated for 10 mins by absorbance based assay; assay type: functional; details: dose 80.0 µg/ml
[4] = system: HEK293; assay: Activation of COL1a2 transcriptional activity in HEK293 cells by dual-luciferase reporter assay; assay type: functional, cell-based; details: Homo sapiens
[5] = Antioxidant activity assessed as ROS scavenging activity; assay type: functional

SMILES: CC(C)C[C@H](NC(=O)[C@@H](N)C(C)C)C(=O)N[C@@H](CCCCN)C(=O)N[C@@H](CCCCN)C(=O)N[C@@H](CS)C(=O)O (H-VLKKC-OH)
- Activity [1]: Active
- Activity [2]: 96.8%
- Activity [3]: Active
- Activity [4]: Active
- Activity [5]: Active

SMILES: CC(C)C[C@H](NC(=O)[C@H](CCCCN)NC(=O)[C@@H]1CCCN1C(=O)[C@H](CC(C)C)NC(=O)[C@@H](N)C(C)C)C(=O)N[C@@H](CCC(=O)O)C(=O)N[C@@H](CS)C(=O)N[C@H](C(=O)N[C@@H](Cc1c[nH]c2ccccc12)C(=O)O)C(C)C (H-VLPKLECVW-OH)
- Activity [4]: Active

— ChEMBL document CHEMBL5338806, “Rationally Designed Nonapeptides with Great Skin Photoprotective Effect through Producing Type 1 Collagen and Blocking the mTOR Pathway” (J Med Chem, 2023)
